ChEMBL document CHEMBL1828549, “Novel C-4'' modified azithromycin analogs with remarkably enhanced activity against erythromycin-resistant Streptococcus pneumoniae: the synthesis and antimicrobial evaluation” (2011)
Values after ≈ are worked out from the molar mass of the structure shown.

Columns and labels:
[1] = test system: Streptococcus pneumoniae; experiment: Antibacterial activity against erythromycin-susceptible Streptococcus pneumoniae ATCC 49619 by the broth microdilution method; assay type: functional
[2] = test system: Streptococcus pneumoniae; experiment: Antibacterial activity against erythromycin-resistant Streptococcus pneumoniae B1 expressing erm gene by the broth microdilution method; assay type: functional
[3] = test system: Streptococcus pneumoniae; experiment: Antibacterial activity against erythromycin-resistant Streptococcus pneumoniae A22072 expressing mef gene by the broth microdilution method; assay type: functional
[4] = test system: Streptococcus pneumoniae; experiment: Antibacterial activity against erythromycin-resistant Streptococcus pneumoniae AB11 expressing erm and mef gene by the broth microdilution method; assay type: functional
[5] = test system: Staphylococcus aureus; experiment: Antibacterial activity against erythromycin-susceptible Staphylococcus aureus ATCC 25923 by the broth microdilution method; assay type: functional
[6] = test system: Staphylococcus aureus; experiment: Antibacterial activity against penicillin-resistant Staphylococcus aureus by the broth microdilution method; assay type: functional
[7] = test system: Staphylococcus aureus; experiment: Antibacterial activity against […] Staphylococcus aureus ATCC 29213 by the broth microdilution method; assay type: functional
[8] = test system: Streptococcus pneumoniae; experiment: Ratio of erythromycin-A MIC to compound MIC for erythromycin-resistant Streptococcus pneumoniae A22072 expressing mef gene; assay type: functional
[9] = test system: Streptococcus pneumoniae; experiment: Ratio of azithromycin MIC to compound MIC for erythromycin-resistant Streptococcus pneumoniae A22072 expressing mef gene; assay type: functional
[10] = test system: Streptococcus pneumoniae; experiment: Ratio of MIC for Streptococcus pneumoniae AB11 expressing erm and mef gene to MIC of reference compound for the same strain
[11] = test system: Streptococcus pneumoniae; experiment: Ratio of MIC for erythromycin-resistant Streptococcus pneumoniae B1 expressing erm gene to MIC of reference compound for the same strain

Compound	MIC [1] [µg/mL]	MIC [2] [µg/mL]	MIC [3] [µg/mL]	MIC [4] [µg/mL]	MIC [5] [µg/mL]	MIC [6] [µg/mL]	MIC [7] [µg/mL]	Ratio [8]	Ratio [9]	Ratio [10]	Ratio [11]
CC[C@H]1OC(=O)[C@H](C)[C@@H](O[C@H]2C[C@@](C)(OC)[C@@H](OC(=O)NNC(=O)c3ccc(C)cc3)[C@H](C)O2)[C@H](C)[C@@H](O[C@@H]2O[C@H](C)C[C@H](N(C)C)[C@H]2O)[C@](C)(O)C[C@@H](C)CN(C)[C@H](C)[C@H]2OC(=O)O[C@@]21C	1 (≈ 1.05 µM)	2 (≈ 2.1 µM)	0.12 (≈ 0.126 µM)	16 (≈ 16.8 µM)	4 (≈ 4.21 µM)	4 (≈ 4.21 µM)	4 (≈ 4.21 µM)	64	32	16	64
CC[C@H]1OC(=O)[C@H](C)[C@@H](O[C@H]2C[C@@](C)(OC)[C@@H](OC(=O)NCCNC(=O)c3cc([N+](=O)[O-])cc([N+](=O)[O-])c3)[C@H](C)O2)[C@H](C)[C@@H](O[C@@H]2O[C@H](C)C[C@H](N(C)C)[C@H]2O)[C@](C)(O)C[C@@H](C)CN(C)[C@H](C)[C@H]2OC(=O)O[C@@]21C	0.12 (≈ 0.114 µM)	1 (≈ 0.948 µM)	0.12 (≈ 0.114 µM)	8 (≈ 7.58 µM)	16 (≈ 15.2 µM)	1 (≈ 0.948 µM)	8 (≈ 7.58 µM)	64	32	32	128
CC[C@H]1OC(=O)[C@H](C)[C@@H](O[C@H]2C[C@@](C)(OC)[C@@H](OC(=O)NCCCCNC(=O)c3cc([N+](=O)[O-])cc([N+](=O)[O-])c3)[C@H](C)O2)[C@H](C)[C@@H](O[C@@H]2O[C@H](C)C[C@H](N(C)C)[C@H]2O)[C@](C)(O)C[C@@H](C)CN(C)[C@H](C)[C@H]2OC(=O)O[C@@]21C	0.12 (≈ 0.111 µM)	1 (≈ 0.923 µM)	0.12 (≈ 0.111 µM)	8 (≈ 7.39 µM)	2 (≈ 1.85 µM)	16 (≈ 14.8 µM)	4 (≈ 3.69 µM)	64	32	32	128
CC[C@H]1OC(=O)[C@H](C)[C@@H](O[C@H]2C[C@@](C)(OC)[C@@H](O)[C@H](C)O2)[C@H](C)[C@@H](O[C@@H]2O[C@H](C)C[C@H](N(C)C)[C@H]2O)[C@](C)(O)C[C@@H](C)C(=O)[C@H](C)[C@@H](O)[C@]1(C)O [ERYTHROMYCIN]	0.03 (≈ 0.0409 µM)	128 (≈ 174 µM)	8 (≈ 10.9 µM)	256 (≈ 349 µM)	0.06 (≈ 0.0818 µM)	0.25 (≈ 0.341 µM)	0.12 (≈ 0.164 µM)				
